Measured values reported in patent publication US9315481B2, “Compounds and methods for treating leukemia” (INDIANA UNIVERSITY RESEARCH AND TECHNOLOGY CORPORATION, priority 2012, dated 2016).
“Also recorded” adds a separate entry of the source.

How the values were obtained:
[1] = tested on: TAIL7 cells; assay: standard cell survival assay (ATP assay) of TAIL7 cells; assay type: cell-based; conditions: Homo sapiens, 96 h
Text: The compounds described herein decrease survival of leukemia cells.

[2] = Maximum tolerated dose (MTD); conditions: in vivo, po
Text: Maximum tolerated dose (MTD). […] Animals were monitored for up to 14 days after termination of dosing.

[3] = tested on: STAT3; assay: activation status of signaling pathways in T-ALL; assay type: cell-based
Protocol: Western blot analysis. For whole cell lysates, cells are harvested, lysed in RIPA buffer (Santa Cruz Biotechnology; Santa Cruz, Calif.), and protein is quantified and electrophoresed. Nuclear and cytoplasmic extracts are isolated using a conventional method (See, Jackson, (2006)). Immunoblotting is performed using the following antibodies: APE1 (Novus Biologicals; Littleton, Colo.), STAT1, STAT3, STAT5, p-STAT1(Y701), p-STAT3(Y705), p-STAT5 (Y694) (Cell Signaling; Danvers, Mass.), and tubulin (Sigma Aldrich) or GAPDH (Santa Cruz).
Biochemistry. […] That result is in contrast to what is observed with other compounds such as PI3K/Akt or mTOR.

[4] = tested on: STAT3, AP-1, and NF-κB; assay: DNA binding and transcriptional activity of the target TFs of Ref-1; assay type: biochemical; conditions: STAT3, AP-1, NF-κB
Protocol: Electrophoretic mobility shift assay (EMSA). […] For the experiment of APE1 interacting with STAT3, purified APE1 protein is reduced with 2 mM DTT (dithiothreitol) for 10 min and diluted to a final concentration of 4 mg with 0.4 mM DTT in PBS. Reduced APE1 is added to 15 mg nuclear extract as above. The final concentration of DTT in redox reactions is 0.04 mM.

[5] = molecular target: Ref-1 (Homo sapiens, UniProt P27695); assay: conventional redox EMSA assay; assay type: biochemical
Text: (§1) Biochemistry 50, 82-92 (2011). Nyland et al., Design and Synthesis of Novel Quinone Inhibitors Targeted to the Redox Function of Apurinic/Apyrimidinic Endonuclease 1/Redox Enhancing Factor-1 (Ape1/Ref-1). J Med Chem 53, 1200-1210 (2010). Kelley et al., Cancer Drug Discovery and Development (ed Rebecca G. Bagley) Springer (part of Springer Science+Business Media), 2010. Luo et al., Role of the multifunctional DNA repair and redox signaling protein Ape1/Ref-1 in cancer and endothelial cells: Small molecule inhibition of Ape1's redox function. Antioxid Redox Signal 10, 1853-1867 (2008). Georgiadis et al., Evolution of the redox function in mammalian Apurinic/apyrimidinic Mutation Research 643, 54-63 (2008).
Electrophoretic mobility shift assay (EMSA). EMSAs are performed as previously described (Georgiadis, (2008) #15789) with the some modifications. Briefly, for super-shift assay, 6 μg STAT3 antibody (Santa Cruz Biotechnology, Inc, Santa Cruz, Calif.) is pre-incubated with 15 mg nuclear extract from PaCa-2 cells (treated with 50 ng/mL IL-6 for 2 hrs in 2% serum), followed by 1 μg/mL poly(dI-dC).poly(dI-dC) (Amersham Biosciences, Piscataway, N.J.) and 0.1 pmol 5′HEX-labeled double-stranded oligonucleotide DNA (Midland Certified Reagent Company, Midland, Tex.) containing the STAT3 direct repeat consensus sequence for 15 min (Preston, (2005)). For the experiment of APE1 interacting with STAT3, purified APE1 protein is reduced with 2 mM DTT (dithiothreitol) for 10 min and diluted to a final concentration of 4 mg with 0.4 mM DTT in PBS. Reduced APE1 is added to 15 mg nuclear extract as above. The final concentration of DTT in redox reactions is 0.04 mM.

[6] = tested on: refractory T-ALL cells; assay: xenograft model of leukemia; assay type: in vivo, NSG mice; conditions: b.i.d., one cycle of 5 days; for circulating blasts (human CD45+ cells in peripheral blood): p<0.05 vs vehicle
Protocol: Xenograft models of childhood relapse, refractory ALL. The antileukemia efficacy of Ref-1 redox blockade by the compounds described herein is evaluated in xenograft models of human ALL. In a first phase, the xenograft model with TAIL7 cells is used to test the therapeutic efficacy of the test compound as monotherapy, and in dual-agent regimens combining test compound with agents used as frontline chemotherapy for T-ALL (Vincristine; Doxorubicin; Dexamethasone) and for relapse T-ALL (Methotrexate). […] Such models of childhood ALL are used in immunodeficient mice (NOD/SCID: terminal leukemia in 70-120 d; NSG: terminal leukemia in 28-35 days with TAIL7 cells), including specimens from relapsed and infant ALL.
Xenografts of pediatric relapse T-cell leukemia: TAIL7 cells or cells from patients with relapse T-ALL (high cellularity; ≧90% BM involvement) will be used for the xenografts; patient specimens will be provided by Dr. Batra, according with IRB regulations. Leukemia cells (1×10^6 TAIL7 cells; 2-3×10^6 patient cells/mice) will be transplanted IV into NSG mice (7-9 wk old). 19, 24 Mice will be monitored weekly for presence of human blasts in the PB, by flow cytometry.
NSG mice (n=5/group) transplanted with refractory T-ALL cells. […] At the end of treatment, frequency of human CD45+ cells was performed in the peripheral blood (PB) and in the bone marrow (BM). Animals are sacrificed for analysis.

[7] = tested on: leukemia cells; assay: leukemia cell survival; assay type: cell-based; conditions: primary cells from ALL patients, relapsed T-ALL, cells from murine Notch-induced leukemia
Protocol: as §1, with “The activity of other selective Ref-1 redox inhibitors are analyzed against leukemia cells according to conventional redox EMSA assays. See, Su, D. et al. Interactions of APE1 with a redox inhibitor: Evidence for an alternate conformation of the enzyme. Biochemistry” for “Biochemistry”

[8] = tested on: Jurkat, SupT1, MOLT4, and HPB-ALL cell lines; assay: viability of relapse T-ALL cell lines; assay type: cell-based; conditions: Homo sapiens; immortalized lines derived from relapse T-ALL patients
Text: (§2) The compounds described herein are effective against leukemia cells harvested from the bone marrow (BM), thymus (T) or spleen (S). Cells are harvested from the bone marrow (BM), thymus (T) or spleen (S) of mice with terminal Notch (ICN)-induced T-ALL, as determined in a conventional ATP assay (viability at 96 hrs) of the leukemia cells cultured with IL-7. […] Similar inhibition is observed in immortalized Jurkat, SupT1, MOLT4, and HPB-ALL cell lines derived from relapse T-ALL patients, with IC50s from 10-30 μM. Relapse T-ALL lines (Jurkat, SupT1, MOLT4, and HPB-ALL) are reportedly resistant to treatment with glucocorticoids. The compounds described herein are also effective against TAIL7-Dexamethasone resistant cells, which show reduced sensitivity to inhibitors of other leukemia-associated signaling pathways (such as PI3K/Akt, mTOR), and to cytotoxic chemotherapy drugs.

[9] = tested on: T-ALL cells; assay: Annexin V/PI assay of apoptosis; assay type: cell-based; conditions: E3330 […] μM or 40 μM, d1 to d5
Text: The compounds described herein cause apoptosis of leukemia cells, including leukemia T-ALL cells.

[10] = tested on: Survivin and Bcl-xL mRNA; assay: quantitative PCR of survival genes; assay type: cell-based; conditions: after 24 h at doses between 25-40 μM
Text: The compounds described herein caused a substantial downregulation of survival genes regulated by STAT3 and NF-κB, such as Survivin, Bcl-xL, and miR-21.

[11] = tested on: T-ALL lines from a murine model of T-cell leukemia induced by oncogenic Notch; assay: ATP viability assay of leukemia cells from murine Notch-induced T-ALL; assay type: cell-based; conditions: Mus musculus, T-ALL lines from mice with terminal Notch-induced disease
Text: as §2

[12] = tested on: T-ALL cells; assay: potentiation of conventional drugs, ATP assay; assay type: cell-based; conditions: fixed dose 20 μM, compared to vehicle
Text: The compounds described herein potentiate the efficacy of conventional drugs for treating leukemia, such as doxorubicin and STATTIC. […]

Sequence of Ref-1 (P27695 whole entry): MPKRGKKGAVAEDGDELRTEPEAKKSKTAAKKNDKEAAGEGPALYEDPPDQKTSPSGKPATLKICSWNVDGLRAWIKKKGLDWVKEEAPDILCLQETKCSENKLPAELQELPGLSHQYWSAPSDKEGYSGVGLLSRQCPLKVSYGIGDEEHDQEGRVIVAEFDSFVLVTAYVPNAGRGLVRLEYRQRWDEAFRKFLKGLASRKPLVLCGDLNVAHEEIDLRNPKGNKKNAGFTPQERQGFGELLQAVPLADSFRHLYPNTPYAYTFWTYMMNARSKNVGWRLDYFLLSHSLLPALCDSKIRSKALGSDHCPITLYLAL

Row | SMILES | IC50 [1] | MTD [2] | activation status of other signaling pathways involved in T-ALL [3] | phosphorylation state and nuclear translocation of STAT3 [3] | DNA binding and transcriptional activity of the target TFs of Ref-1 [4] | IC50 [5] | frequency of CD45+ in the BM ([6]; 25 mg/kg/d) | circulating blasts (human CD45+ cells in peripheral blood) ([6]; 25 mg/kg/d) | leukemia cell survival [7] | IC50 [8] | leukemia cell apoptosis [9] | reduction in Survivin and Bcl-xL mRNA [10] | IC50 [11] | frequency of CD45+ in the BM ([6]; 50 mg/kg/d) | circulating blasts (human CD45+ cells in peripheral blood) ([6]; 50 mg/kg/d) | potentiation of the activity of STATTIC [12] | potentiation of the activity of doxorubicin [12]
1 | COC1=C(C=C(C)C(=O)N(C)C)C(=O)c2ccccc2C1=O [Example 5a] | 5.5 µM | > 250 mg/kg | do not affect | do not affect | disrupt | 1 µM |  |  |  |  |  |  |  |  |  |  | 
2 | CCCC(=CC1=C(OC)C(=O)c2ccccc2C1=O)C(=O)N(CC)CC [Example 5c] | 4.2 µM | > 250 mg/kg | do not affect | do not affect | disrupt | 1 µM | marked decrease | significant reduction |  |  |  |  |  |  |  |  | 
3 | CCCC(=CC1=C(OC)C(=O)c2ccccc2C1=O)C(=O)N(C)C [Example 5e] | 5.5 µM | > 250 mg/kg | do not affect | do not affect | disrupt | 2 µM |  |  |  |  |  |  |  |  |  |  | 
4 | CCCCCCCCC/C(=C\C1=C(C)C(=O)C(OC)=C(OC)C1=O)C(=O)O [Example E3330] | 29.7 µM | > 250 mg/kg | do not affect | do not affect | disrupt |  |  |  | markedly inhibits | 10 to 30 µM | significant leukemia cell apoptosis; also recorded: induces leukemia cell apoptosis | 2-10 fold | 20 to 30 µM | marked decrease | significant reduction | potentiates | potentiates
